These are literature values, as cited in paper PMC8277557 (Bioorganic & Medicinal Chemistry Letters, 2021).

For series [1] the following is noted: in vivo.
The subject of a further series is CoV-2 3CLpro. The conditions noted are these: for IC50: read-out: Literature IC50, CoV-2 3CLpro.

Where two headings read alike, the source gives them in different places.

With `C[C@@H](OC(C)(C)C)[C@H](NC(=O)OCc1ccccc1)C(=O)N[C@@H](CC1CCCCC1)C(=O)N[C@H](C=O)C[C@@H]1CCNC1=O` [TG-0205221], the “pharmacokinetic profile in rodents” value in series [1] is “favourable pharmacokinetic profile”.
`CCOC(=O)/C=C/[C@H](C[C@@H]1CCNC1=O)NC(=O)[C@@H](CC(=O)[C@@H](NC(=O)c1cc(C)on1)C(C)C)Cc1ccc(F)cc1` [Rupintrivir]: the “activity against SARS-CoV-2 3CLpro” value in the series with CoV-2 3CLpro (ref [16], [19]) was “inactive”. Further, the “activity against SARS-CoV-1 3CLpro” value in the series with CoV-1 3CLpro was “inactive”.
On to `CCOC(=O)/C=C/[C@H](C[C@@H]1CCNC1=O)NC(=O)[C@H](CC(C)C)NC(=O)[C@@H](NC(=O)OCc1ccccc1)C(C)C` [Compound 3], for which, at CoV-1 3CLpro (read-out: Literature Ki, CoV-1 3CLpro, ref [19]), the Ki (usually a measure of affinity in units of concentration, obtained from inhibition or displacement) was 0.66 µM.
For the compound `O=C[C@H](C[C@@H]1CCNC1=O)NC(=O)[C@H](Cc1cccc(F)c1)NC(=O)c1cc2ccccc2[nH]1` [Compound 11b], in the series on CoV-2 3CLpro (ref [20]), the half-maximal inhibitory concentration (IC50) – broadly, the concentration that gives 50% inhibition – is 0.04 ± 0.002 µM.
`CCCC[C@@H](C=O)NC(=O)[C@H](CC(C)C)NC(=O)OCc1ccccc1` [Calpeptin]: the concentration for half-maximal inhibition (IC50) is 10.7 ± 0.28 µM in the series on CoV-2 3CLpro (ref [16]) and 4.81 ± 0.18 µM in the series with CoV-2 3CLpro (ref [31]).
In the case of `CC(C)C[C@H](NC(=O)OCc1ccccc1)C(=O)N[C@@H](C[C@@H]1CCNC1=O)C(=O)c1nc2ccccc2s1` [Compound 25c], the IC50 in the series on CoV-1 3CLpro (read-out: Literature IC50) was 21 µM.
Regarding Boceprevir, the values for the IC50 with CoV-2 3CLpro (ref [16]) and in the series on CoV-2 3CLpro (ref [29]) were 4.13 ± 0.61 µM and 5.4 ± 1.53 µM, respectively.
